# Values of other authors, collected in patent US20040162333A1, “Rapid absorption selective 5-HT agonist formulations” (priority 2003, published 2004).
# Details: commercially available oral triptans
row,Compound,Time to Peak Effect (Tmax) [h]
1,"CN[C@@H]1CCc2[nH]c3ccc(C(N)=O)cc3c2C1 [Frovatriptan (Frova), Frovatriptan]",2 to 4
2,"CN(C)CCc1c[nH]c2ccc(CS(=O)(=O)N3CCCC3)cc12 [Almotriptan (Axert), Almotriptan]",1 to 3
3,CNS(=O)(=O)Cc1ccc2[nH]cc(CCN(C)C)c2c1 [Sumatriptan],2.5
4,"CNS(=O)(=O)CCc1ccc2[nH]cc(C3CCN(C)CC3)c2c1 [Naratriptan (Amerge), Naratriptan]",2 to 3
5,"CN(C)CCc1c[nH]c2ccc(Cn3cncn3)cc12 [Rizatriptan (Maxalt), Rizatriptan]",1 to 1.5
6,"CN(C)CCc1c[nH]c2ccc(C[C@H]3COC(=O)N3)cc12 [Zolmitriptan (Zomig), Zolmitriptan]",2
